Assay results as given in DBAASP.
Converted amounts (≈) assume the structure as drawn. “And” between values parts separate entries of the source, which are not always exact repeats. Equal values may be shown once.

Legend:
Assay in all cases: ≥ marks a high value that may be exact or a test limit, other limits are often not marked, values filed in µg/mL are converted to µM
Staphylococcus aureus MR = test system: Staphylococcus aureus MR
Acinetobacter baumannii = test system: Acinetobacter baumannii
[1] = test system: Pseudomonas aeruginosa PA14
[2] = test system: Escherichia coli KpC+001812446
[3] = test system: Klebsiella pneumoniae KpC+001825971
[4] = test system: Staphylococcus aureus ATCC 12600
Enterobacter cloacae = test system: Enterobacter cloacae
[5] = test system: Pseudomonas aeruginosa PAO1
[6] = test system: Staphylococcus aureus ATCC 25923
[7] = test system: Escherichia coli ATCC 25922
Escherichia coli BL21 = test system: Escherichia coli BL21
[8] = test system: Klebsiella pneumoniae ATCC 13883
[9] = test system: Salmonella enterica subsp. enterica serovar Typhimurium ATCC 14028
[10] = test system: Staphylococcus aureus CMCC 26074
[11] = test system: Listeria monocytogenes CMCC 54004
[12] = test system: Salmonella enterica subsp. enterica serovar Typhi CMCC 50071
[13] = test system: Salmonella enterica subsp. enterica serovar Typhimurium C77-31
[14] = test system: Salmonella enterica subsp. enterica CMCC 47020
[15] = test system: Salmonella enterica subsp. enterica serovar Pullorum C79-13
Escherichia coli UB1005 = test system: Escherichia coli UB1005
[16] = test system: Cronobacter sakazakii ATCC 29544
[17] = test system: Bacillus cereus CMCC 6303
Escherichia coli = test system: Escherichia coli
Staphylococcus aureus = test system: Staphylococcus aureus
[18] = test system: Candida albicans ATCC 24433
[19] = test system: Trichophyton rubrum ATCC 28189
[20] = test system: Candida parapsilosis ATCC 22019
[21] = test system: Enterococcus faecalis NCTC 12697
[22] = test system: Chromobacterium violaceum ATCC 12472
[23] = test system: Escherichia coli NCTC 10418
[24] = test system: Pseudomonas aeruginosa ATCC 27853
[25] = test system: Staphylococcus aureus NCTC 10788
[26] = test system: Candida albicans NCPE 1467
[27] = test system: Staphylococcus aureus ATCC 43300
[28] = test system: Staphylococcus aureus NCTC 12493
[29] = test system: Klebsiella pneumoniae ATCC 700603
[30] = test system: Staphylococcus aureus ATCC 33591
[31] = test system: Enterococcus faecium ATCC 700221
[32] = test system: Acinetobacter baumannii ATCC BAA-1605
[33] = test system: Streptococcus pneumoniae TIGR4
[34] = test system: Streptococcus pyogenes AP1
Xanthomonas vesicatoria = test system: Xanthomonas vesicatoria
[35] = test system: Xanthomonas oryzae pv. oryzae
Klebsiella pneumoniae = test system: Klebsiella pneumoniae
[36] = test system: Cryptococcus neoformans var. grubii H99
Candida albicans SC5314 = test system: Candida albicans SC5314
[37] = test system: Xanthomonas campestris pv. campestris
Pseudomonas aeruginosa = test system: Pseudomonas aeruginosa
Pseudomonas syringae = test system: Pseudomonas syringae
[38] = test system: Staphylococcus aureus ATCC 29213

Question: Which results are given for CC[C@H](C)[C@H](NC(=O)[C@H](CCCCN)NC(=O)[C@H](C)NC(=O)[C@H](C)NC(=O)[C@H](CC(C)C)NC(=O)[C@H](CCCN=C(N)N)NC(=O)[C@H](CC(C)C)NC(=O)[C@H](C)NC(=O)[C@H](CC(C)C)NC(=O)[C@H](CCCCN)NC(=O)[C@H](CC(C)C)NC(=O)[C@H](CCCCN)NC(=O)[C@H](CCCCN)NC(=O)[C@H](CCSC)NC(=O)[C@@H]1CCCN1)C(=O)N[C@@H](C)C(=O)N1CCC[C@H]1C(=O)N[C@H](C(=O)N[C@@H](Cc1c[nH]c2ccccc12)C(=O)O)C(C)C [PMKKLKLALRLAAKIAPVW]?
Answer: MIC (Staphylococcus aureus MR): ≥ 32 µM; MIC (Acinetobacter baumannii): 4 µM (≈ 8.59 µg/mL); MIC [1]: 8 µM (≈ 17.2 µg/mL); MIC [2]: 2 µM (≈ 4.3 µg/mL); MIC [3]: ≥ 32 µM; MIC [4]: 16 µM (≈ 34.4 µg/mL); MIC (Enterobacter cloacae): ≥ 32 µM; MIC [5]: 16 µM (≈ 34.4 µg/mL); MIC [6]: 8 µM (≈ 17.2 µg/mL); MIC [7]: 8 µM (≈ 17.2 µg/mL); MIC (Escherichia coli BL21): 2 µM (≈ 4.3 µg/mL); MIC [8]: 8 µM (≈ 17.2 µg/mL)

Question: Which MIC [9] does the source give for CC[C@H](C)[C@H](NC(=O)[C@H](CCCN=C(N)N)NC(=O)[C@H](Cc1c[nH]c2ccccc12)NC(=O)[C@H](CCCCN)NC(=O)[C@@H](N)CCCN=C(N)N)C(=O)N[C@H](C(=O)N[C@H](C(=O)N[C@H](C(=O)N[C@@H](CCCN=C(N)N)C(=O)N[C@H](C(=O)N[C@@H](CCCN=C(N)N)C(=O)N[C@@H](CCCN=C(N)N)C(N)=O)C(C)C)[C@@H](C)CC)C(C)C)C(C)C [RKWRIVVIRVRR] here?
Answer: 32 µM (≈ 52.4 µg/mL)

Question: What about the MIC [10] of the same compound?
Answer: ≥ 256 µM

Question: And the MIC [11]?
Answer: 2 µM (≈ 3.27 µg/mL)

Question: And the MIC [12]?
Answer: 8 µM (≈ 13.1 µg/mL)

Question: What about the MIC [13] of the same compound?
Answer: ≥ 32 µM

Question: And the MIC [14]?
Answer: ≥ 64 µM

Question: What about the MIC [6] of the same compound?
Answer: 128 µM (≈ 209 µg/mL)

Question: What about the MIC [15] of the same compound?
Answer: 8 µM (≈ 13.1 µg/mL)

Question: What about the MIC (Escherichia coli UB1005) of the same compound?
Answer: 8 µM (≈ 13.1 µg/mL)

Question: And the MIC [16]?
Answer: ≥ 32 µM

Question: What about the MIC [17] of the same compound?
Answer: 16 µM (≈ 26.2 µg/mL)

Question: CC[C@H](C)[C@H](NC(=O)[C@H](CCC(=O)O)NC(=O)[C@H](CO)NC(=O)[C@H](CCCN=C(N)N)NC(=O)[C@@H](N)CO)C(=O)N[C@H](C(=O)N[C@@H](CCC(N)=O)C(=O)N[C@@H](CCCN=C(N)N)C(=O)N[C@@H](CC(C)C)C(=O)N[C@@H](Cc1ccccc1)C(N)=O)C(C)C [SRSEIVQRLF] was tested. Which MIC (Escherichia coli) did it give?
Answer: > 324 µM

Question: What about the MIC (Staphylococcus aureus) of the same compound?
Answer: > 324 µM

Question: What about the MIC [18] of the same compound?
Answer: ≥ 324 µM

Question: What about the MIC [19] of the same compound?
Answer: ≥ 324 µM

Question: What about the MIC [20] of the same compound?
Answer: ≥ 324 µM

Question: What does the source list for CC[C@H](C)[C@H](NC(=O)[C@H](C)NC(=O)[C@H](C)NC(=O)[C@@H]1CCCN1C(=O)[C@@H](NC(=O)[C@H](CC(C)C)NC(=O)[C@H](CCCCN)NC(=O)[C@H](CO)NC(=O)[C@H](C)NC(=O)[C@@H](NC(=O)[C@H](CCCCN)NC(=O)[C@H](Cc1ccccc1)NC(=O)[C@H](CC(C)C)NC(=O)[C@H](C)NC(=O)CNC(=O)[C@H](CC(C)C)NC(=O)[C@@H](N)Cc1ccccc1)C(C)C)C(C)C)C(=O)N[C@H]1CSSC[C@@H](C(=O)O)NC(=O)[C@H](CCCCN)NC(=O)[C@H](CCCCN)NC(=O)[C@H](CO)NC(=O)[C@H]([C@@H](C)CC)NC(=O)[C@H](CO)NC1=O [FLGALFKVASKLVPAAICSISKKC]?
Answer: MIC [21]: 12.8 µM (≈ 31.9 µg/mL); MIC [22]: ≥ 205 µM; MIC [23]: 8 µM (≈ 19.9 µg/mL); MIC [24]: 32 µM (≈ 79.8 µg/mL); MIC [25]: 2 µM (≈ 4.99 µg/mL); MIC [26]: 4 µM (≈ 9.97 µg/mL); MIC [27]: 51.3 µM (≈ 128 µg/mL); MIC [28]: 4 µM (≈ 9.97 µg/mL)

Question: Which results are given for CC[C@H](C)[C@H](NC(=O)[C@H](CCCCN)NC(=O)[C@H](CCCN=C(N)N)NC(=O)[C@H](Cc1ccccc1)NC(=O)[C@H](CC(C)C)NC(=O)[C@H](CCCN=C(N)N)NC(=O)[C@@H](N)CCCCN)C(=O)N[C@@H](CC(C)C)C(=O)N[C@@H](CCCN=C(N)N)C(=O)N[C@@H](Cc1ccc(O)cc1)C(=O)N[C@@H](CC(C)C)C(N)=O [KRLFRKILRYL]?
Answer: MIC [29]: 23.2 µM (≈ 35 µg/mL); MIC [30]: ≥ 46.8 µM; MIC [31]: 23.2 µM (≈ 35 µg/mL); MIC [32]: 11.6 µM (≈ 17.5 µg/mL); MIC [24]: 46.8 µM (≈ 70.5 µg/mL); MIC [7]: 46.8 µM (≈ 70.5 µg/mL)

Question: How did the MIC (Escherichia coli) turn out when CC[C@H](C)[C@H](NC(=O)[C@H](CCC(=O)O)NC(=O)[C@H](Cc1ccc(O)cc1)NC(=O)[C@@H](N)CCCCN)C(=O)N[C@H](C(=O)N[C@H](C(=O)N[C@H](C(=O)N[C@@H](Cc1cnc[nH]1)C(=O)N[C@@H](CC(N)=O)C(=O)N[C@@H](CC(C)C)C(=O)N[C@@H](Cc1ccccc1)C(=O)N[C@@H](CCCN=C(N)N)C(=O)N[C@@H](CCCCN)C(=O)N[C@@H](CC(C)C)C(=O)N[C@H](C(=O)N[C@@H](Cc1cnc[nH]1)C(=O)N[C@@H](CCCN=C(N)N)C(=O)N[C@@H](CC(C)C)C(=O)N[C@@H](Cc1ccccc1)C(=O)N[C@@H](CCCN=C(N)N)C(=O)N[C@@H](CCCN=C(N)N)C(=O)N[C@@H](CC(N)=O)C(=O)N[C@@H](Cc1ccccc1)C(=O)NCC(=O)N[C@@H](Cc1ccc(O)cc1)C(=O)N[C@H](C(=O)N[C@@H](CC(C)C)C(=O)N[C@@H](CCCN=C(N)N)C(=O)O)[C@@H](C)O)[C@@H](C)O)[C@@H](C)CC)[C@@H](C)O)[C@@H](C)O [KYEITTIHNLFRKLTHRLFRRNFGYTLR] was run?
Answer: 3.54 µM (≈ 12.7 µg/mL)

Question: And the MIC (Staphylococcus aureus)?
Answer: 5 µM (≈ 18 µg/mL)

Question: And the MIC [33]?
Answer: 5 µM (≈ 18 µg/mL)

Question: And the MIC [34]?
Answer: 10 µM (≈ 36 µg/mL)

Question: And the MIC (Xanthomonas vesicatoria)?
Answer: 1 µM (≈ 3.6 µg/mL)

Question: What about the MIC [24] of the same compound?
Answer: 10 µM (≈ 36 µg/mL)

Question: What about the MIC [35] of the same compound?
Answer: 5 µM (≈ 18 µg/mL)

Question: What about the MIC (Klebsiella pneumoniae) of the same compound?
Answer: 10 µM and 25 µM

Question: And the MIC [36]?
Answer: 25 µM and ≥ 50 µM

Question: What about the MIC (Candida albicans SC5314) of the same compound?
Answer: 25 µM and ≥ 50 µM

Question: What about the MIC [37] of the same compound?
Answer: 5 µM (≈ 18 µg/mL)

Question: And the MIC (Pseudomonas aeruginosa)?
Answer: 14.1 µM (≈ 50.8 µg/mL)

Question: What about the MIC [7] of the same compound?
Answer: 10 µM (≈ 36 µg/mL)

Question: And the MIC (Pseudomonas syringae)?
Answer: 5 µM (≈ 18 µg/mL)

Question: What about the MIC [38] of the same compound?
Answer: 5 µM (≈ 18 µg/mL)
